In patent US20260347373A1, “HETEROCYCLIC COMPOUNDS, COMPOSITIONS THEREOF, AND METHODS OF TREATMENT THEREWITH” (BeOne Medicines I GmbH, priority 2023, published 2026):
Where a name gives a salt, the structure may show the parent alone. Read-outs that look alike come from different tables or passages of the source.

Columns and labels:
WT KRAS = WT KRAS (Homo sapiens, UniProt P01116); assay: KRAS WT Probe Displacement Assay (TR-FRET, GDP-loaded); type: binding
Source text: (§1) The synthetic routes of probe 1 and 2, which have been disclosed in PCT/CN2022/070676, are hereby incorporated herein.

KRAS G12D = KRAS G12D (Homo sapiens, UniProt P01116, G12D); assay: KRAS G12D Probe Displacement Assay (TR-FRET, GDP-loaded); type: binding
Sequence of KRAS G12D (P01116 1-188 isoform P01116-2 G12D): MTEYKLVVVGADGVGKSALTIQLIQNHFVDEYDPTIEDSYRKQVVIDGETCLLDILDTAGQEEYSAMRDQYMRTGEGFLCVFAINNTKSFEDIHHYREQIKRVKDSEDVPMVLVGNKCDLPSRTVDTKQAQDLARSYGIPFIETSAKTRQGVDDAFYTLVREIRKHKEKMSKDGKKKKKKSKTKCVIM
Source text: as §1

[1] = KRAS WT, read-out: KRAS^WT Probe Displacement Assay IC50
[2] = KRAS G12D, read-out: KRAS^G12D Probe Displacement Assay IC50

Sequence of WT KRAS (P01116 1-188 isoform P01116-2): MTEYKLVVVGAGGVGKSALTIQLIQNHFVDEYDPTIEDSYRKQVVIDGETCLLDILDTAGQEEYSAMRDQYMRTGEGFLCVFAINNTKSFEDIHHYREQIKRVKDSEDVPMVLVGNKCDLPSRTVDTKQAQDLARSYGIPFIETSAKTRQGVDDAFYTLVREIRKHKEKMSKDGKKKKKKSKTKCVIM

Row | Structure (SMILES) | IC50 (WT KRAS; [1]) [nM] | IC50 (KRAS G12D; [2]) [nM] | IC50 (WT KRAS; KRAS^WT Probe Displacement Assay IC50, KRAS WT) [nM] | IC50 (KRAS G12D; KRAS^G12D Probe Displacement Assay IC50, KRAS G12D) [nM]
1 | Cc1cc(N)cc(-c2nc3c4c(nc(OCC5(C)CN(CC6CC6)CC/C5=C\F)nc4c2F)N2C[C@H]4CC[C@H](N4)[C@H]2CCO3)c1C(F)(F)F (single isomer, unassigned) [Example 238] | 3 to 1000 | < 0.3 |  | 
2 | Cc1cc(N)cc(-c2nc3c4c(nc(OCC5(CN6C[C@H]7C[C@H]7[C@H]6C)CC5)nc4c2F)N2C[C@H]4CC[C@H](N4)[C@H]2CCO3)c1C(F)(F)F [Example 172, 3-((6aR,7S,10R)-1-fluoro-13-((1-(((1R,2R,5S)-2-methyl-3-azabicyclo[3.1.0]hexan-3-yl)methyl)cyclopropyl)methoxy)-5,6,6a,7,8,9,10,11-octahydro-4-oxa-3,11a,12,14,15-pentaaza-7,10-methanocyclohepta[4,5]cycloocta[1,2,3-de]naphthalen-2-yl)-5-methyl-4-(trifluoromethyl)aniline] | 3 to 1000 | < 0.3 |  | 
3 | Cc1cc(N)cc(-c2nc3c4c(nc(OCC5(CN6CCC(C(F)(F)F)C6)CC5)nc4c2F)N2C[C@H]4CC[C@H](N4)[C@H]2CCO3)c1C(F)(F)F (stereo partly drawn) [Example 91, 3-((6aR,7S,10R)-1-fluoro-13-((1-((3-(trifluoromethyl)pyrrolidin-1-yl)methyl)cyclopropyl)methoxy)-5,6,6a,7,8,9,10,11-octahydro-4-oxa-3,11a,12,14,15-pentaaza-7,10-methanocyclohepta [4,5]cycloocta [1,2,3-de]naphthalen-2-yl)-5-methyl-4-(trifluoromethyl)aniline] | 3 to 1000 | < 0.3 |  | 
4 | Cc1cc(N)cc(-c2nc3c4c(nc(OCC5(CN6C[C@H]7C[C@H]7[C@H]6CO)CC5)nc4c2F)N2C[C@H]4CC[C@H](N4)[C@H]2CCO3)c1C(F)(F)F [Example 98, ((1R,2S,5S)-3-((1-((((6aR,7S,10R)-2-(5-amino-3-methyl-2-(trifluoromethyl)phenyl)-1-fluoro-5,6,6a,7,8,9,10,11-octahydro-4-oxa-3,11a,12,14,15-pentaaza-7,10-methanocyclohepta [4,5]cycloocta[1,2,3-de]naphthalen-13-yl)oxy)methyl)cyclopropyl)methyl)-3-azabicyclo [3.1.0]hexan-2-yl) methanol] | 3 to 1000 | < 0.3 |  | 
5 | Cc1cc(N)cc(-c2nc3c4c(nc(O[C@H](C)[C@@H]5CCCN5C)nc4c2F)N2C[C@H]4CC[C@H](N4)[C@H]2CCO3)c1C(F)(F)F [Example 38, 3-((6aR,7S,10R)-1-fluoro-13-((R)-1-((S)-1-methylpyrrolidin-2-yl)ethoxy)-5,6,6a,7,8,9,10,11-octahydro-4-oxa-3,11a,12,14,15-pentaaza-7,10-methanocyclohepta[4,5]cycloocta [1,2,3-de]naphthalen-2-yl)-5-methyl-4-(trifluoromethyl)aniline] | 3 to 1000 | 0.3 to 3 |  | 
6 | Cc1cc(N)cc(-c2nc3c4c(nc(OCC5(CN6CCC7(CCOCC7)C6)CC5)nc4c2F)N2C[C@H]4CC[C@H](N4)[C@H]2CCO3)c1C(F)(F)F [Example 101, 3-((6aR,7S,10R)-13-((1-((8-oxa-2-azaspiro[4.5]decan-2-yl)methyl)cyclopropyl)methoxy)-1-fluoro-5,6,6a, 7,8,9,10,11-octahydro-4-oxa-3,11a,12,14,15-pentaaza[7,10]methanocyclohepta [4,5]cycloocta[1,2,3-de]naphthalen-2-yl)-5-methyl-4-(trifluoromethyl) aniline formate] |  |  | 3 to 1000 | < 0.3
7 | [2H]C([2H])([2H])c1cc(N)cc(-c2nc3c4c(nc(OC[C@]5(CN(C)C)CC5(F)F)nc4c2F)N2C[C@H]4CC[C@H](N4)[C@H]2CCO3)c1C(F)(F)F [Example 47, 3-((6aR,7S,10R)-13-(((R)-1-((dimethylamino)methyl)-2,2-difluorocyclopropyl)methoxy)-1-fluoro-5,6,6a,7,8,9,10,11-octahydro-4-oxa-3,11a,12,14,15-pentaaza-7,10-methanocyclohepta[4,5]cycloocta [1,2,3-de]naphthalen-2-yl)-5-(methyl-d3)-4-(trifluoromethyl)aniline] | 3 to 1000 | < 0.3 |  | 
8 | C[C@]1(COc2nc3c4c(nc(-c5cc(N)cc(Cl)c5C(F)(F)F)c(F)c4n2)OCC[C@@H]2[C@@H]4CC[C@H](CN32)N4)CCCN(C2CCOCC2)C1 [Example 196, 3-chloro-5-((6aR,7S,10R)-1-fluoro-13-(((S)-3-methyl-1-(tetrahydro-2H-pyran-4-yl)piperidin-3-yl)methoxy)-5,6,6a,7,8,9,10,11-octahydro-4-oxa-3,11a,12,14,15-pentaaza-7,10-methanocyclopenta[4,5]cycloocta[1,2,3-de]naphthalen-2-yl)-4-(trifluoromethyl)aniline] | 0.3 to 3 | < 0.3 |  | 
9 | Cc1cc(N)cc(-c2nc3c4c(nc(OCC5(CN6CCC6)CC5(F)F)nc4c2F)N2C[C@H]4CC[C@H](N4)[C@H]2CCO3)c1C(F)(F)F (stereo partly drawn) [Example 19, 3-((6aR,7S,10R)-13-((1-(azetidin-1-ylmethyl)-2,2-difluorocyclopropyl)methoxy)-1-fluoro-5,6,6a,7,8,9,10,11-octahydro-4-oxa-3,11a,12,14,15-pentaaza-7,10-methanocyclohepta[4,5]cycloocta[1,2,3-de]naphthalen-2-yl)-5-methyl-4-(trifluoromethyl)aniline] | 3 to 1000 | < 0.3 |  | 
10 | Cc1cc(N)cc(-c2nc3c4c(nc(OCC5(CN6CC=CC6CO)CC5)nc4c2F)N2C[C@H]4CC[C@H](N4)[C@H]2CCO3)c1C(F)(F)F (stereo partly drawn) [Example 161, (1-((1-((((6aR,7S,10R)-2-(5-amino-3-methyl-2-(trifluoromethyl)phenyl)-1-fluoro-5,6,6a,7,8,9,10,11-octahydro-4-oxa-3,11a,12,14,15-pentaaza-7,10-methanocyclohepta[4,5]cycloocta[1,2,3-de]naphthalen-13-yl)oxy)methyl)cyclopropyl)methyl)-2,5-dihydro-1H-pyrrol-2-yl)methanol] | 3 to 1000 | < 0.3 |  | 
11 | Cc1cc(N)cc(-c2nc3c4c(nc(OCC5(CN6CCC[C@H]6C)CC5)nc4c2F)N2C[C@H]4CC[C@H](N4)[C@H]2CCO3)c1C(F)(F)F [Example 122, 3-((6aR,7S,10R)-1-fluoro-13-((1-(((R)-2-methylpyrrolidin-1-yl)methyl)cyclopropyl)methoxy)-5,6,6a,7,8,9, 10,11-octahydro-4-oxa-3,11a,12,14,15-pentaaza-7,10-methanocyclohepta [4,5]cycloocta [1,2,3-de]naphthalen-2-yl)-5-methyl-4-(trifluoromethyl)aniline] | 3 to 1000 | < 0.3 |  | 
12 | Cc1nc(N)cc(-c2nc3c4c(nc(OCC5(CN6CCC(=C(F)F)C6)CC5)nc4c2F)N2C[C@H]4CC[C@H](N4)[C@H]2CCO3)c1C(F)(F)F [Example 150, 4-((6aR,7S,10R)-13-((1-((3-(difluoromethylene)pyrrolidin-1-yl)methyl)cyclopropyl)methoxy)-1-fluoro-5,6,6a,7,8,9,10,11-octahydro-4-oxa-3,11a,12,14,15-pentaaza-7,10-methano-cyclohepta[4,5]cycloocta [1,2,3-de]naphthalen-2-yl)-6-methyl-5-(trifluoromethyl)pyridin-2-amine] | 3 to 1000 | < 0.3 |  | 
13 | Cc1cc(N)cc(-c2nc3c4c(nc(OCC5(CN6CCC7(C6)CC7(F)F)CC5)nc4c2F)N2C[C@H]4CC[C@H](N4)[C@H]2CCO3)c1C(F)(F)F (single isomer, unassigned) [Example 138] | 0.3 to 3 | < 0.3 |  | 
